Results reported in the METLIN SMRT retention time set (Domingo-Almenara et al. 2019).

test: gradient 5% acetonitrile 3 min, to 50% in 2 min, to 85% in 15 min, held 3 min, 100 µL/min; details: column: Zorbax Extend-C18 2.1 x 50 mm; eluents: water / acetonitrile, 0.1% formic acid
Method in brief: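 A Zorbax Extend-C18 column (2.1 × 50 mm, 1.8 μm) run at 100 μL/min with water and acetonitrile, both containing 0.1% formic acid, separated mixtures of ~100 pure standards. The HPLC was coupled to a quadrupole time-of-flight mass spectrometer operated in positive and negative ionization mode, with dead and dwell volumes of 40 μL and 900 μL. Each retention time was taken from a computationally picked adduct peak that was then manually inspected.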

Row | SMILES | RP-LC retention time [s]
1 | COc1ccc(OC)c(NC(=O)N2CCN(c3cc(-c4ccccc4)ncn3)CC2)c1 | 667
2 | COc1ccccc1NC(=O)C(=O)c1ccc[nH]1 | 908
3 | Cc1sc(-c2nnc(C3CC3)o2)cc1NC(=O)c1ccnn1C | 796
4 | COC(=O)c1ccc(NC(=O)c2cc(C(C)(C)C)n3nccc3n2)cc1 | 865
5 | O=C(Cn1nc2c(cc1=O)CCCC2)Nc1nc(-c2ccncc2)cs1 | 606
6 | CC(C)C(=O)Nc1cccn2nc(C(C)C)nc12 | 780
7 | COc1ccc(OC)c(CNC(=O)c2c(C)sc3ccn(C)c(=O)c23)c1 | 688
8 | O=C1CC(c2nc(-c3ccccc3)no2)CN1c1ccc(F)cc1 (configuration not stated) | 940
9 | O=C(O)c1ccc(Nc2c(-c3cccc(Br)c3)nc3cnccn23)cc1 | 736
10 | CC1(C)C(=O)N(CC(=O)Nc2cccc(Cl)c2)c2ccccc21 | 978
11 | Cc1cccc(C#Cc2ccccc2)n1 | 833
12 | Cc1cc(C)c(NC(=O)COc2cccc3c(=O)n(C)ccc23)c(C)c1 | 805
13 | c1cn(Cc2nc(-c3ccc4c(c3)OCO4)no2)cn1 | 605
14 | O=C(NCc1ccco1)c1csc(-c2ccc(N3CCCCC3)nc2)n1 | 819
15 | O=C(CSc1nnc2sc3ccccc3n12)c1ccc(F)cc1 | 778
16 | COc1cccc(Cn2cccc(S(=O)(=O)N3CCCCCC3)c2=O)c1 | 935
17 | O=C(Cn1ccc2ccccc21)Nc1ccc2cn[nH]c2c1 | 726
18 | COc1ccc(Br)cc1CNC(=O)Cn1cnc2onc(C)c2c1=O | 815
19 | COCCNC(=O)C1CN(S(=O)(=O)c2ccccc2)CC12CCCCC2 (configuration not stated) | 811
20 | COc1ccccc1CNC(=O)CN1CCN(Cc2ccccc2F)C1=O | 715
21 | CCCCN1CC(=O)N(c2ccc(OC)cc2)[C@@H]2CS(=O)(=O)C[C@@H]21 | 719
22 | O=C(NCCc1ccncc1)C1CN(C(=O)c2ccncc2)CC12CCCCC2 (configuration not stated) | 551
23 | COc1ccc(CNC(=O)Cn2c(=O)cc(-c3nc(C)no3)c3ccccc32)cc1OC | 746
24 | N#Cc1ccc(-c2nc(C3CC(=O)N(c4ccc(F)cc4)C3)no2)cc1 (configuration not stated) | 897
25 | COC(=O)c1nnc2c(-c3ccccc3OC)c(C)nn2c1C | 869
26 | COc1ccc(-c2ncc3c(n2)CCN(C(=O)c2cc(F)ccc2Cl)C3)cc1 | 966
27 | O=C(CCc1c(-c2ccc(Cl)cc2)nc2ccccn12)N1CCOCC1 | 587

Row | SMILES | RP-LC retention time [s]
28 | COc1ccc2[nH]c3c(c2c1)CCN1C(=O)N(CCc2ccc(OC)c(OC)c2)C(=O)C31C (configuration not stated) | 888
29 | CCOC(=O)c1ccc(S(=O)(=O)NCCCn2nc(-c3ccncc3)ccc2=O)cc1 | 592
30 | Cc1ccccc1NC(=O)c1cc(C)n2nc(-c3ccsc3)cc2n1 | 1240
31 | Cc1ccc(-c2cn3c(n2)N(C(=O)c2nc4ncccn4n2)CCC3)cc1 | 611
32 | CCC1(O)CCC12CCN(C(=O)c1ccsc1)CC2 (configuration not stated) | 716
33 | COc1ccc(NS(=O)(=O)c2cc3n(c2)CCCNC3=O)c(C)c1 | 640
34 | Cc1nn(CCC(=O)Nc2ccc(F)cc2F)c(=O)c2nn(-c3ccccc3)c(C)c12 | 795
35 | Nc1nc(N2CCOCC2)nc2ccccc12 | 572
36 | CCOc1ccc2nc(NC(=O)C3CCN(c4ccc(-n5cccn5)nn4)CC3)sc2c1 | 780
37 | Cc1nc(C)c(-c2ccc(=O)[nH]n2)s1 | 558
38 | Cc1[nH]c(-c2ccc(F)cc2)cc1C(=O)N1CC=C(c2ccccc2)CC1 | 1030
39 | CCc1nc2ccc(CCC(=O)NCCCc3ccccc3)cc2[nH]1 | 614
40 | COc1ccccc1NS(=O)(=O)c1ccc2c(c1)CCCC(=O)N2 | 716
41 | O=C(c1cn(CC(O)c2ccccc2)nn1)N1CCN(c2ccccn2)CC1 (configuration not stated) | 544
42 | CCN(CC)c1ccc(-c2noc(CN3CCN(c4ccccn4)CC3)n2)cn1 | 575
43 | O=c1ccc(-c2ccccc2Br)nn1Cc1nc(-c2ccc3c(c2)OCO3)no1 | 1040
44 | O=C(Nc1nnc(Cc2ccccc2)s1)C1CC(=O)N(c2n[nH]c3cccc(F)c23)C1 (configuration not stated) | 745
45 | O=S(=O)(c1ccc2nc(N3CCN(C4CCCCC4)CC3)cnc2c1)N1CCCCC1 | 705
46 | CCCN1C(=O)COc2ccc(-c3noc(COc4ccc(F)cc4)n3)cc21 | 1090
47 | OC[C@@H]1CN(Cc2cn[nH]c2-c2ccc(F)cc2)C[C@H]1c1ccccn1 | 586
48 | O=C(NCC(O)(c1ccccc1)C(F)(F)F)c1cnccn1 (configuration not stated) | 710
49 | O=C(Nc1ccc(N2CCN(Cc3ccc(F)cc3)C2=O)nc1)C1CCC1 | 750
50 | Fc1cccc(F)c1-c1nc(-c2ccc3nncn3c2)no1 | 765
51 | Cc1nn(C)c(C)c1S(=O)(=O)N1CCC(n2c(C)cnc2-c2ccncc2)C1 (configuration not stated) | 588
52 | CCN1C(=O)c2cccnc2Sc2cc(NC(=O)c3ccccc3C)ccc21 | 833
53 | NC(=O)c1cccn1Cc1ccccc1Cl | 804

More lines, now with the values ahead:

Row | RP-LC retention time [s] | SMILES
54 | 746 | COc1cccc(C(=O)N2CCC3(CC2)NC(=O)c2ccc(Cl)cc2N3)c1
55 | 1000 | CCCCNC(=O)COc1c(C)cc(Br)cc1C
56 | 1380 | COc1ccc(-n2c(=O)c(C(=O)NC3CCCCCC3)c(O)c3cccnc32)cc1
57 | 976 | Cc1ccc(S(=O)(=O)N2C(=O)CCC2C(=O)Nc2cccc(C)c2C)cc1C (configuration not stated)
58 | 664 | CC(C)c1ccc(CN2CC(c3nc(CCN(C)S(C)(=O)=O)no3)C2)cc1
59 | 837 | CCC1Oc2ccc(S(=O)(=O)N3CCC(C(=O)Nc4cc(C)ccc4C)CC3)cc2NC1=O (configuration not stated)
60 | 597 | Cc1nn(C)cc1CN(C)C(=O)CCC1CCCN(c2cc(NC3CC3)ncn2)C1 (configuration not stated)
61 | 586 | COCC1CN(C(=O)c2ccc(Cc3c(C)noc3C)o2)CC12CCNCC2 (configuration not stated)
62 | 606 | NC(=O)C1CCN(C(=O)C2COC3(CCCCC3)N2C(=O)c2ccccc2)CC1 (configuration not stated)
63 | 733 | Cc1ccc(C2Cn3nnc(C(=O)N4CCC(C(=O)NC5CC5)CC4)c3CO2)cc1 (configuration not stated)
64 | 835 | COCCNc1c(-c2cccc(F)c2)nc2sc(C(=O)NC(C)C)c(C)n12
65 | 720 | O=C(c1cn2c(n1)CSCC2)N1CCC(Cc2ccccc2)CC1
66 | 694 | CCNC(=O)C1CCc2sc(C(=O)N3CCCCC3)cc2C1 (configuration not stated)
67 | 724 | CCCNC(=O)CC1CCN(C(=O)c2[nH]c(C)c(C(=O)OC(C)C)c2C)CC1
68 | 648 | O=C(Nc1ccc(OCC(=O)N2CCN(c3ccccc3F)CC2)nc1)C1CC1
69 | 672 | Cc1cccc(CNC(=O)CCC2CCN(c3cc(NC4CC4)ncn3)CC2)c1
70 | 1020 | Cc1ccc(C)c(N2CCN(C(=O)Cn3cccc3-c3nnc(C4CC4)o3)CC2)c1
71 | 702 | Cc1cccc(N2CCN(C(=O)c3cn4cc(C)ccc4n3)CC2)c1
72 | 962 | CCOC(=O)CNC(=O)C1CC(=O)N(CCc2c[nH]c3ccc(F)cc23)C1 (configuration not stated)
73 | 879 | CC1CN(C(=O)Cn2cc(SCC(=O)NC3CCCCC3)c3ccccc32)CC(C)O1 (configuration not stated)

Row | RP-LC retention time [s] | SMILES
74 | 646 | COCCc1nncn1C1CCN(C(=O)c2ccccc2OC(F)(F)F)CC1
75 | 678 | Cc1noc2nc(C)n(CC(=O)NC3CCCC3)c(=O)c12
76 | 840 | COc1ccc(OC)c(NC(=O)C2CCN(S(=O)(=O)c3ccc4c(c3)sc(=O)n4C)CC2)c1
77 | 966 | CCc1nc(-c2csc(S(=O)(=O)N3CCC(C(=O)Nc4cccc(C#N)c4)CC3)c2)no1
78 | 1080 | CCc1nc(-c2csc(S(=O)(=O)N3CCCC(C(=O)Nc4c(C)cccc4CC)C3)c2)no1 (configuration not stated)
79 | 622 | Cc1nnc(N2CCC(C(=O)NCCCN3CCCC3=O)CC2)c2nn(-c3ccccc3)c(C)c12
80 | 786 | CCC(C)C(NC(=O)c1ccc(C)cc1C)C(=O)Nc1nc2ccccc2[nH]1 (configuration not stated)
81 | 734 | O=C(NCCc1csc(C2CCN(C(=O)C3CCCCC3)CC2)n1)C1CC1
82 | 597 | COCC(=O)N1CCCC(c2nc(CNC(=O)C3CCC3)cs2)C1 (configuration not stated)
83 | 889 | O=C(NCCc1csc(-c2cccs2)n1)C1CCN(S(=O)(=O)c2ccccc2)CC1
84 | 583 | CCN1C(=O)Cc2cc(C(=O)N3CCN(C4CCCCC4)CC3)ccc21
85 | 765 | CCCN(C)c1nccnc1OC1CCN(C(=O)C2CCC2)C1 (configuration not stated)
86 | 598 | CCc1ccccc1NC(=O)Cn1c(N)nc(COC)cc1=O
87 | 611 | COC(=O)c1ccc(C(=O)NCC2(CO)CC2)cc1
88 | 636 | Cc1ccc(NC(=O)Cn2c(N3CCCC3)nc(C)cc2=O)cc1
89 | 658 | CNC(=O)C1CCN(C(=O)Nc2ccc(NC(=O)Nc3ccc(C)cc3)cc2)CC1
90 | 792 | CCOC(=O)N1CCc2nc(NC(=O)c3ccc([N+](=O)[O-])s3)sc2C1
91 | 706 | COc1ccc(NC(=O)N2CCC(CC(=O)N3CCCCC3)CC2)cc1
92 | 877 | Cc1ccc(N2C(=O)CN(S(C)(=O)=O)CC2(C)C(=O)NCc2ccc(F)cc2)cc1Cl (configuration not stated)
